Key:
[1] = tested on: Blumeria graminis f. sp. tritici (Erysiphe graminis f. sp. tritici); assay: Blumeria graminis f. sp. tritici / wheat / leaf disc preventative (powdery mildew on wheat); type: in vivo; conditions: foliar, wheat leaf segments cv. Kanzler, compared to untreated control leaf disks, read-out: disease control
Source text: Blumeria graminis f. sp. tritici (Erysiphe graminis f. sp. tritici)/Wheat/Leaf Disc Preventative (Powdery Mildew on Wheat) Wheat leaf segments cv. Kanzler were placed on agar in a multiwell plate (24-well format) and sprayed with the formulated test compound diluted in water. The leaf disks were inoculated by shaking powdery mildew infected plants above the test plates 1 day after application.

[2] = tested on: Puccinia recondita f. sp. tritici; assay: Puccinia recondita f. sp. tritici / wheat / leaf disc curative (brown rust); type: in vivo; conditions: foliar, 24 h, wheat leaf segments cv. Kanzler, curative (applied 1 day after inoculation), compared to untreated control leaf disks, read-out: disease control
Experimental: Puccinia recondita f. sp. tritici/Wheat/Leaf Disc Curative (Brown Rust) Wheat leaf segments cv. Kanzler are placed on agar in multiwell plates (24-well format). The leaf segments are inoculated with a spore suspension of the fungus. Plates were stored in darkness at 19° C. and 75% rh. The formulated test compound diluted in water was applied 1 day after inoculation.

Phakopsora pachyrhizi = Phakopsora pachyrhizi / soybean / leaf disk preventative (soybean rust); type: in vivo; conditions: foliar, soybean leaf disks, compared to untreated control leaf disks, read-out: disease control
Experimental: Phakopsora pachyrhizi/Soybean/Leaf Disk Preventative (Soybean Rust) Four-week old soybean plants are sprayed in a spray chamber with the formulated test compound diluted in water. Leaf disks are cut from treated plants and placed on agar into 24-well plates one day after application. Leaf disks are inoculated by spraying them with a spore suspension on their lower leaf surface. After an incubation period in a climate cabinet of 24-36 hours in darkness at 20° C. and 75% rh, the leaf disks are then kept at 20° C. with 12 h light/day and 75% rh. The percentage leaf disk area covered by disease is assessed when an appropriate level of disease appears on untreated check plants (12-14 days after application).

[3] = tested on: Puccinia recondita f. sp. tritici; assay: Puccinia recondita f. sp. tritici / wheat / leaf disc preventative (brown rust); type: in vivo; conditions: foliar, wheat leaf segments cv. Kanzler, compared to untreated control leaf disks, read-out: disease control
Experimental: Puccinia recondita f. sp. tritici/Wheat/Leaf Disc Preventative (Brown Rust) Wheat leaf segments cv. Kanzler were placed on agar in multiwell plates (24-well format) and sprayed with the formulated test compound diluted in water. The leaf disks were inoculated with a spore suspension of the fungus 1 day after application. The inoculated leaf segments were incubated at 19° C. and 75% rh under a light regime of 12 h light/12 h darkness in a climate cabinet and the activity of a compound was assessed as percent disease control compared to untreated when an appropriate level of disease damage appears in untreated check leaf segments (7-9 days after application).

With `CCN(C)/C=N/c1cc(OC)c(C(O)(C(F)(F)F)C(F)(F)F)cc1C` [Compound E1.001] the melting point was 126 to 128 °C, the pest or weed control at 200 ppm [1] was ≥ 80% and the pest or weed control at 200 ppm [2] was ≥ 80%. For the same compound, the pest or weed control at 200 ppm (Phakopsora pachyrhizi) was ≥ 80% and the pest or weed control at 200 ppm [3] was ≥ 80%.
For `CCOc1cc(/N=C/N(C)CC)c(C)cc1C(O)(c1ccccc1)C(F)(F)F` (stereo not drawn) [Compound E1.002], the melting point was 148 to 151 °C, the pest or weed control at 200 ppm [2] was ≥ 80% and the pest or weed control at 200 ppm (Phakopsora pachyrhizi) was ≥ 80%. For the same compound, the pest or weed control at 200 ppm [3] was ≥ 80%.
In the case of `CCN(C)/C=N/c1cc(OC)c(C(O)(c2ccc(F)cc2)C(F)(F)F)cc1C` (stereo not drawn) [Compound E1.004], the melting point is reported as 102 to 104 °C, the pest or weed control at 200 ppm [1] is reported as ≥ 80% and the pest or weed control at 200 ppm [2] is reported as ≥ 80%. For the same compound, the pest or weed control at 200 ppm (Phakopsora pachyrhizi) was ≥ 80% and the pest or weed control at 200 ppm [3] was ≥ 80%.
For `CCN(C)/C=N/c1cc(OC)c(C(O)(c2ccccc2)C(F)(F)F)cc1C` (stereo not drawn) [Compound E1.006], the melting point was 160 to 162 °C, the pest or weed control at 200 ppm [1] was ≥ 80% and the pest or weed control at 200 ppm [2] was ≥ 80%. The pest or weed control at 200 ppm (Phakopsora pachyrhizi) was ≥ 80% and the pest or weed control at 200 ppm [3] was ≥ 80%.
With `COc1cc(/N=C/N(C)C(C)C)c(C)cc1C(O)(c1ccccc1)C(F)(F)F` (stereo not drawn) [Compound E1.009] the melting point was 110 to 111 °C, the pest or weed control at 200 ppm [2] was ≥ 80% and the pest or weed control at 200 ppm [3] was ≥ 80%.
In the case of `CCN(C)/C=N/c1cc(OC)c(C(O)(c2cccc(C(F)(F)F)c2)C(F)(F)F)cc1C` (stereo not drawn) [Compound E1.010], the melting point is reported as 121 to 123 °C, the pest or weed control at 200 ppm [1] is reported as ≥ 80% and the pest or weed control at 200 ppm [2] is reported as ≥ 80%. For the same compound, the pest or weed control at 200 ppm (Phakopsora pachyrhizi) was ≥ 80% and the pest or weed control at 200 ppm [3] was ≥ 80%.
In the case of `CCN(C)/C=N/c1cc(OC)c(C(O)(c2ccc(OC)cc2)C(F)(F)F)cc1C` (stereo not drawn) [Compound E1.011], the melting point is reported as 67 to 71 °C, the pest or weed control at 200 ppm [1] is reported as ≥ 80% and the pest or weed control at 200 ppm [2] is reported as ≥ 80%. The pest or weed control at 200 ppm (Phakopsora pachyrhizi) was ≥ 80% and the pest or weed control at 200 ppm [3] was ≥ 80%.
For `CCN(C)/C=N/c1cc(OC)c(C(O)(c2cccc(C)c2)C(F)(F)F)cc1C` (stereo not drawn) [Compound E1.016], the melting point was 125 to 127 °C, the pest or weed control at 200 ppm [1] was ≥ 80% and the pest or weed control at 200 ppm [2] was ≥ 80%. For the same compound, the pest or weed control at 200 ppm (Phakopsora pachyrhizi) was ≥ 80% and the pest or weed control at 200 ppm [3] was ≥ 80%.
In the case of `CCN(C)/C=N/c1cc(OC)c(C(O)(c2ccc(Cl)cc2Cl)C(F)(F)F)cc1C` (stereo not drawn) [Compound E1.017], the melting point is reported as 119 to 121 °C, the pest or weed control at 200 ppm [1] is reported as ≥ 80% and the pest or weed control at 200 ppm [2] is reported as ≥ 80%. For the same compound, the pest or weed control at 200 ppm (Phakopsora pachyrhizi) was ≥ 80% and the pest or weed control at 200 ppm [3] was ≥ 80%.
For `CCN(C)/C=N/c1cc(OC)c(C(O)(c2ccc(F)cc2F)C(F)(F)F)cc1C` (stereo not drawn) [Compound E1.018], the melting point was 113 to 114 °C, the pest or weed control at 200 ppm [1] was ≥ 80% and the pest or weed control at 200 ppm [2] was ≥ 80%. For the same compound, the pest or weed control at 200 ppm (Phakopsora pachyrhizi) was ≥ 80% and the pest or weed control at 200 ppm [3] was ≥ 80%.
In the case of `CCN(C)/C=N/c1cc(OC)c(C(O)(c2ccc(C(F)(F)F)cc2)C(F)(F)F)cc1C` (stereo not drawn) [Compound E1.019], the melting point is reported as 124 to 126 °C, the pest or weed control at 200 ppm [1] is reported as ≥ 80% and the pest or weed control at 200 ppm [2] is reported as ≥ 80%. The pest or weed control at 200 ppm [3] was ≥ 80%.
For `CCN(C)/C=N/c1cc(OC)c(C(O)(c2ccc(C)cc2)C(F)(F)F)cc1C` (stereo not drawn) [Compound E1.020], the melting point was 112 to 114 °C, the pest or weed control at 200 ppm [1] was ≥ 80% and the pest or weed control at 200 ppm [2] was ≥ 80%. The pest or weed control at 200 ppm (Phakopsora pachyrhizi) was ≥ 80% and the pest or weed control at 200 ppm [3] was ≥ 80%.
For `CCN(C)/C=N/c1cc(OC)c(C(O)(c2ccc(Cl)cc2)C(F)(F)F)cc1C` (stereo not drawn) [Compound E1.021], the melting point was 134 to 135 °C, the pest or weed control at 200 ppm [1] was ≥ 80% and the pest or weed control at 200 ppm [2] was ≥ 80%. The pest or weed control at 200 ppm [3] was ≥ 80%.
In the case of `CCN(C)/C=N/c1cc(OC)c(C(O)(c2cccc(C#N)c2)C(F)(F)F)cc1C` (stereo not drawn) [Compound E1.022], the melting point is reported as 38 to 40 °C, the pest or weed control at 200 ppm [1] is reported as ≥ 80% and the pest or weed control at 200 ppm [2] is reported as ≥ 80%. The pest or weed control at 200 ppm (Phakopsora pachyrhizi) was ≥ 80% and the pest or weed control at 200 ppm [3] was ≥ 80%.
In the case of `CCN(C)/C=N/c1cc(OC)c(C(O)(c2cccc(Br)c2)C(F)(F)F)cc1C` (stereo not drawn) [Compound E1.023], the melting point is reported as 98 to 100 °C, the pest or weed control at 200 ppm [1] is reported as ≥ 80% and the pest or weed control at 200 ppm [2] is reported as ≥ 80%. The pest or weed control at 200 ppm (Phakopsora pachyrhizi) was ≥ 80% and the pest or weed control at 200 ppm [3] was ≥ 80%.
For `CCN(C)/C=N/c1cc(OC)c(C(O)(c2ccccc2C)C(F)(F)F)cc1C` (stereo not drawn) [Compound E1.024], the melting point was 115 to 117 °C, the pest or weed control at 200 ppm [1] was ≥ 80% and the pest or weed control at 200 ppm [2] was ≥ 80%. The pest or weed control at 200 ppm (Phakopsora pachyrhizi) was ≥ 80% and the pest or weed control at 200 ppm [3] was ≥ 80%.

Reference: patent publication US10723695B2, “Microbiocidal phenylamidine derivatives” (SYNGENTA PARTICIPATIONS AG, priority 2015, dated 2020)
